Tests used:
[1] = test system: morningglory; test: Test B pre/postemergence morningglory; type: in vivo, Ipomoea hederacea
Outline: (§1)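 Herbicidal effect was estimated by eye on a ten-point control scale after plants spent twelve to sixteen days in a greenhouse following soil or foliar treatment. Foliar sprays targeted plants at one to four leaves; all doses were formulated in a non-phytotoxic solvent with surfactant.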

[2] = test system: velvetleaf; test: Test B pre/postemergence velvetleaf; type: in vivo, Abutilon theophrasti
Outline: as §1

[3] = test system: sugar beet; test: Test B pre/postemergence sugar beet; type: in vivo, Beta vulgaris
Outline: as §1

[4] = test system: blackgrass; test: Test B pre/postemergence blackgrass; type: in vivo, Alopecurus myosuroides
Outline: as §1

[5] = test system: corn; test: Test B pre/postemergence corn; type: in vivo, Zea mays
Outline: as §1

[6] = test system: surinam grass; test: Test B pre/postemergence surinam grass; type: in vivo, Brachiaria decumbens
Outline: as §1

[7] = test system: wild oat; test: Test B pre/postemergence wild oat; type: in vivo, Avena fatua
Outline: as §1

[8] = test system: purple nutsedge; test: Test B pre/postemergence purple nutsedge; type: in vivo, Cyperus rotundus
Outline: as §1

[9] = test system: soybean; test: Test B pre/postemergence soybean; type: in vivo, Glycine max
Outline: as §1

[10] = test system: giant foxtail; test: Test B pre/postemergence giant foxtail; type: in vivo, Setaria faberii
Outline: as §1

[11] = test system: cocklebur; test: Test B pre/postemergence cocklebur; type: in vivo, Xanthium strumarium
Outline: as §1

[12] = test system: bedstraw; test: Test B pre/postemergence bedstraw; type: in vivo, Galium aparine; conditions: Preemergence
Outline: as §1

[13] = test system: rape; test: Test B pre/postemergence rape; type: in vivo, Brassica napus
Outline: as §1

[14] = test system: wheat; test: Test B pre/postemergence wheat; type: in vivo, Triticum aestivum
Outline: as §1

[15] = test system: crabgrass; test: Test B pre/postemergence crabgrass; type: in vivo, Digitaria sanguinalis
Outline: as §1

[16] = test system: pigweed; test: Test B pre/postemergence pigweed; type: in vivo, Amaranthus retroflexus
Outline: as §1

[17] = Postemergence, Rate 62 g/ha, scale 0 to 10, 0 is no effect, 10 is complete control
[18] = Postemergence, Rate 125 g/ha, scale of 0 to 10 where 0 is no effect and 10 is complete control
[19] = Preemergence, Rate 125 g/ha, scale of 0 to 10 where 0 is no effect and 10 is complete control
[20] = Preemergence, Rate 250 g/ha, scale 0 (no effect) to 10 (complete control)
[21] = Rate 62 g/ha, Preemergence, scale 0 to 10
[22] = Rate 250 g/ha, Postemergence, scale 0 to 10, 0 is no effect, 10 is complete control
[23] = Rate 500 g/ha, Postemergence, scale 0 to 10, 0 is no effect, 10 is complete control
[24] = Rate 500 g/ha, Preemergence, scale 0 to 10 (0 no effect, 10 complete control)

Structure (SMILES): COC1CCC(Cn2c(=O)on(C(=O)N(c3ccc(Cl)cc3)C(C)C)c2=O)=NO1 (stereo not drawn) [Compound 760]
- Plant response rating, Morningglory [1, 17]: 3
- Morningglory plant response rating [1, 18]: 3
- Plant response rating, Morningglory [1, 19]: 0
- Morningglory plant response rating [1, 20]: 0
- Morningglory plant response rating [1, 21]: 0
- Morningglory plant response rating [1, 22]: 3
- Morningglory plant response rating [1, 23]: 3
- Morningglory plant response rating [1, 24]: 0
- Plant response rating, Velvetleaf [2, 17]: 0
- Plant response rating, Velvetleaf [2, 19]: 0
- Velvetleaf plant response rating [2, 20]: 0
- Velvetleaf plant response rating [2, 21]: 0
- Velvetleaf plant response rating [2, 22]: 0
- Velvetleaf plant response rating [2, 23]: 3
- Velvetleaf plant response rating [2, 24]: 0
- Plant response rating, Sugarbeets [3, 17]: 0
- Plant response rating, Sugarbeets [3, 19]: 3
- Sugarbeets plant response rating [3, 20]: 3
- Sugarbeets plant response rating [3, 21]: 3
- Sugarbeets plant response rating [3, 22]: 0
- Sugarbeets plant response rating [3, 23]: 0
- Sugarbeets plant response rating [3, 24]: 6
- Plant response rating, Blackgrass [4, 17]: 0
- Blackgrass plant response rating [4, 18]: 0
- Plant response rating, Blackgrass [4, 19]: 4
- Blackgrass plant response rating [4, 20]: 6
- Blackgrass plant response rating [4, 21]: 0
- Blackgrass plant response rating [4, 22]: 0
- Blackgrass plant response rating [4, 23]: 3
- Blackgrass plant response rating [4, 24]: 9
- Plant response rating, Corn [5, 17]: 0
- Corn plant response rating [5, 18]: 0
- Plant response rating, Corn [5, 19]: 0
- Corn plant response rating [5, 20]: 0
- Corn plant response rating [5, 21]: 0
- Corn plant response rating [5, 22]: 1
- Corn plant response rating [5, 23]: 1
- Corn plant response rating [5, 24]: 4
- Plant response rating, B. signalgrass [6, 17]: 0
- B. signalgrass plant response rating [6, 18]: 0
- B. signalgrass plant response rating ([6]; Preemergence, Rate 62 g/ha, scale of 0 to 10 where 0 is no effect and 10 is complete control): 2
- Plant response rating, B. signalgrass [6, 19]: 3
- B. signalgrass plant response rating [6, 20]: 10
- B. signalgrass plant response rating [6, 22]: 0
- B. signalgrass plant response rating [6, 23]: 5
- B. signalgrass plant response rating [6, 24]: 10
- Plant response rating, Wild oats [7, 17]: 0
- Plant response rating, Wild oats [7, 19]: 0
- Wild oats plant response rating [7, 20]: 2
- Wild oats plant response rating [7, 21]: 0
- Wild oats plant response rating [7, 22]: 0
- Wild oats plant response rating [7, 23]: 4
- Wild oats plant response rating [7, 24]: 6
- Plant response rating, Nutsedge [8, 17]: 0
- Nutsedge plant response rating [8, 18]: 0
- Plant response rating, Nutsedge [8, 19]: 0
- Nutsedge plant response rating [8, 20]: 0
- Nutsedge plant response rating [8, 21]: 0
- Nutsedge plant response rating [8, 22]: 0
- Nutsedge plant response rating [8, 23]: 0
- Nutsedge plant response rating [8, 24]: 0
- Plant response rating, Soybean [9, 17]: 4
- Plant response rating, Soybean [9, 19]: 0
- Soybean plant response rating [9, 20]: 0
- Soybean plant response rating [9, 21]: 0
- Soybean plant response rating [9, 22]: 4
- Soybean plant response rating [9, 23]: 5
- Soybean plant response rating [9, 24]: 0
- Plant response rating, Giant foxtail [10, 17]: 0
- Giant foxtail plant response rating [10, 18]: 7
- Plant response rating, Giant foxtail [10, 19]: 9
- Giant foxtail plant response rating [10, 20]: 10
- Giant foxtail plant response rating [10, 21]: 8
- Giant foxtail plant response rating [10, 22]: 7
- Giant foxtail plant response rating [10, 23]: 7
- Giant foxtail plant response rating [10, 24]: 10
- Plant response rating, Cocklebur [11, 17]: 0
- Cocklebur plant response rating [11, 18]: 0
- Cocklebur plant response rating [11, 20]: 0
- Cocklebur plant response rating [11, 21]: 0
- Cocklebur plant response rating [11, 22]: 0
- Cocklebur plant response rating [11, 23]: 1
- Cocklebur plant response rating [11, 24]: 0
- Plant response rating, Bedstraw ([12]; Rate 125 g/ha, scale of 0 to 10 where 0 is no effect and 10 is complete control): 0
- Bedstraw plant response rating ([12]; Rate 250 g/ha, scale 0 (no effect) to 10 (complete control)): 0
- Bedstraw plant response rating ([12]; Rate 62 g/ha, scale 0 to 10): 0
- Bedstraw plant response rating ([12]; Rate 500 g/ha, scale 0 to 10 (0 no effect, 10 complete control)): 6
- Plant response rating, Rape [13, 17]: 2
- Rape plant response rating [13, 18]: 1
- Plant response rating, Rape [13, 19]: 0
- Rape plant response rating [13, 20]: 2
- Rape plant response rating [13, 21]: 0
- Rape plant response rating [13, 22]: 2
- Rape plant response rating [13, 23]: 5
- Rape plant response rating [13, 24]: 5
- Plant response rating, Wheat [14, 17]: 0
- Plant response rating, Wheat [14, 19]: 0
- Wheat plant response rating [14, 20]: 0
- Wheat plant response rating [14, 21]: 0
- Wheat plant response rating [14, 22]: 0
- Wheat plant response rating [14, 23]: 0
- Wheat plant response rating [14, 24]: 3
- Plant response rating, Crabgrass [15, 17]: 5
- Crabgrass plant response rating [15, 18]: 6
- Plant response rating, Crabgrass [15, 19]: 7
- Crabgrass plant response rating [15, 20]: 10
- Crabgrass plant response rating [15, 21]: 2
- Crabgrass plant response rating [15, 22]: 9
- Crabgrass plant response rating [15, 24]: 10
- Plant response rating, Redroot pigweed [16, 17]: 0
- Redroot pigweed plant response rating [16, 18]: 0
- Plant response rating, Redroot pigweed [16, 19]: 7
- Redroot pigweed plant response rating [16, 20]: 9
- Redroot pigweed plant response rating [16, 21]: 7
- Redroot pigweed plant response rating [16, 22]: 2
- Redroot pigweed plant response rating [16, 23]: 3
- Redroot pigweed plant response rating [16, 24]: 9

Reference: US6737383B1, “Herbicidal oxadiazolidines” (priority 1999, dated 2004)
